Results reported in US6447794B2, “Stomach-action molluscicides” (priority 1996, dated 2002).

Tests used:
Deroceras reticulatum [1] = conditions: on wet soil after 10 days; cited from earlier work
Helix apersa = assay: preliminary trials, contact poison on a smooth glass surface; format: in vivo, Helix aspersa
Protocol: (§1) Subsequent trials compared the effective toxicity of methiocarb, metaldehyde bait pellets and ferric EDTA pellets and ferric EDTA bait powder to Helix aspersa and the effective toxicity of ferric EDTA to Deroceras reticulatum. Limited trials were carried out on Theba pisana (the white Italian snail), Cernuella virgata (the vineyard snail), Limax maximus and Cochlicella spp.

Deroceras reticulatum [2] = assay: as above; format: in vivo
Protocol: as §1

SMILES	toxicity relative to Iron(III) EDTA (Deroceras reticulatum [1])	toxicity as a contact poison (Helix apersa)	toxicity as a contact poison (Deroceras reticulatum [2])
CC(=O)/C=C(/C)[O-].CC(=O)/C=C(/C)[O-].CC(=O)/C=C(/C)[O-].[Fe+3] [Iron(III) 2,4-pentanedionate]	about twice to three times as toxic		
O=C([O-])CN(CCN(CC(=O)[O-])CC(=O)[O-])CC(=O)[O-].[Fe+3].[Na+] [ferric EDTA, Ferric sodium EDTA]		toxic	toxic
